Drawing on BindingDB's records for doi:10.3109/14756366.2010.491795 (Dumlupinar University, 2011), this text covers Ki and IC50 for eleven compounds.

pIC50, pKi: −log10 of the molar value.

The target in assay [1] is T1, Carbonic anhydrase 1 (Homo sapiens, UniProt P00915). Description: Enzyme Activity Assay.
In assay [2] the target is T2, Carbonic anhydrase 2 (Homo sapiens, UniProt P00918). Description: Enzyme Activity Assay.
In assay [3] the target is T1, Carbonic anhydrase 1. Description: Hydratase Activity Assay.
For assay [4], the target named is T2, Carbonic anhydrase 2. Description: Hydratase Activity Assay.
Assay [5] addresses T1, Carbonic anhydrase 1. Description: Esterase Activity Assay. The following applies: pH 7.4. On the procedure: (§1) The enzymatic reaction, in a total volume of 3 mL, contained 1.4 mL of 0.05 M tris-SO4 buffer (pH 7.4), 1 mL of 3 mM 4-nitrophenylacetate, 0.5 mL H2O and 0.1 mL enzyme solution. A reference measurement was obtained by preparing the same cuvette without any enzyme solution.

Assay [6] addresses T2, Carbonic anhydrase 2. Description: Esterase Activity Assay. The following applies: pH 7.4. How it is done:
as §1

T1 sequence (P00915 whole entry): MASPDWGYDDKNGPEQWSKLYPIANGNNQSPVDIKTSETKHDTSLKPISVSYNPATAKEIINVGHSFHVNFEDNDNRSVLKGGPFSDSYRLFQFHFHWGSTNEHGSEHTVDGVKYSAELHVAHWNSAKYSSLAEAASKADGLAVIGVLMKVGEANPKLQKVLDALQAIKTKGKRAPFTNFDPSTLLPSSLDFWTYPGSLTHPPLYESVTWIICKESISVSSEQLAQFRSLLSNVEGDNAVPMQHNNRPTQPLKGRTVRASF

Usually pKi stands for the Ki on a negative log10 scale, so that one unit is a factor of ten. A low value points to a large Ki. One may read the pIC50 as the negative decadic logarithm of the IC50, by convention in mol/L. A lower pIC50 goes with a large IC50. In the case of `CC(=O)Cn1c(C)cc2cc(-n3nc(C(=O)Nc4nnc(S(N)(=O)=O)s4)c(C(=O)c4ccccc4)c3-c3ccccc3)ccc21` [4-Benzoyl-1-(2-methyl-1-(2-oxopropyl)-1H-indol-5-yl)-5-phenyl-N-(5-sulphamoyl-1,3,4-thiadiazol-2-yl)-1H-pyrazole-3-carboxamide (18)], the pKi at Carbonic anhydrase 1 [1] is 5.18; on Carbonic anhydrase 2 [2], 5.41. Further, the pIC50 against Carbonic anhydrase 1 [3] was 6.12; against Carbonic anhydrase 2 [4] it was 6.22; on Carbonic anhydrase 1 [5], 5.62; against Carbonic anhydrase 2 [6] it was 5.76.

`NS(=O)(=O)c1nnc(NC(=O)c2nn(-c3ccc(NN=C(C(=O)c4ccccc4)C(=O)c4ccccc4)cc3)c(-c3ccccc3)c2C(=O)c2ccccc2)s1` [4-Benzoyl-1-(4-(2-(1,3-dioxo-1,3-diphenylpropan-2-ylidene)hydrazinyl)phenyl)-5-phenyl-N-(5-sulphamoyl-1,3,4-thiadiazol-2-yl)-1H-pyrazole-3-carboxamide (13)]: the figures for the negative-log Ki (pKi) at Carbonic anhydrase 1 [1] and on Carbonic anhydrase 2 [2] were 5.99 and 5.50, respectively. Further, the pIC50 on Carbonic anhydrase 1 [3] is 6.15; on Carbonic anhydrase 2 [4], 6.00; on Carbonic anhydrase 1 [5], 5.32; against Carbonic anhydrase 2 [6] it was 5.85.

For `CC(=O)/C(=N\Nc1ccc(-n2nc(C(=O)Nc3nnc(S(N)(=O)=O)s3)c(C(=O)c3ccccc3)c2-c2ccccc2)cc1)C(=O)c1ccccc1` [4-Benzoyl-1-(4-(2-(1,3-dioxo-1-phenylbutan-2-ylidene)hydrazinyl)phenyl)-5-phenyl-N-(5-sulphamoyl-1,3,4-thiadiazol-2-yl)-1H-pyrazole-3-carboxamide (12)], the values for the pKi at Carbonic anhydrase 1 [1] and at Carbonic anhydrase 2 [2] were 5.81 and 6.61, respectively. For the same compound, the pIC50 was 6.79 on Carbonic anhydrase 1 [3], 6.80 against Carbonic anhydrase 2 [4], 6.00 against Carbonic anhydrase 1 [5] and 6.43 against Carbonic anhydrase 2 [6].

Consider `CC(=O)C(=NNc1ccc(-n2nc(C(=O)Nc3nnc(S(N)(=O)=O)s3)c(C(=O)c3ccccc3)c2-c2ccccc2)cc1)C(C)=O` [4-Benzoyl-1-(4-(2-(2,4-dioxopentan-3-ylidene)hydrazinyl)phenyl)-5-phenyl-N-(5-sulphamoyl-1,3,4-thiadiazol-2-yl)-1H-pyrazole-3-carboxamide (11)], for which the pKi on Carbonic anhydrase 1 [1] is 6.24; on Carbonic anhydrase 2 [2], 6.99. The pIC50 is 6.48 against Carbonic anhydrase 1 [3], 7.10 on Carbonic anhydrase 2 [4], 6.24 at Carbonic anhydrase 1 [5] and 6.89 at Carbonic anhydrase 2 [6].

On to `NS(=O)(=O)c1nnc(NC(=O)c2nn(-c3ccc(/N=N/c4c(O)ccc5ccccc45)cc3)c(-c3ccccc3)c2C(=O)c2ccccc2)s1` [4-Benzoyl-1-(4-((2-hydroxynaphthalen-1-yl)diazenyl)phenyl)-5-phenyl-N-(5-sulphamoyl-1,3,4-thiadiazol-2-yl)-1H-pyrazole-3-carboxamide (8)], for which the pKi on Carbonic anhydrase 1 [1] was 5.23; on Carbonic anhydrase 2 [2], 6.07. The negative-log IC50 (pIC50) against Carbonic anhydrase 1 [3] was 5.54; against Carbonic anhydrase 2 [4], 5.62; against Carbonic anhydrase 1 [5] it was 5.32; against Carbonic anhydrase 2 [6], 5.68.

As to `NS(=O)(=O)c1nnc(NC(=O)c2nn(-c3ccc(/N=N/c4ccc(O)cc4)cc3)c(-c3ccccc3)c2C(=O)c2ccccc2)s1` [4-Benzoyl-1-(4-((4-hydroxyphenyl)diazenyl)phenyl)-5-phenyl-N-(5-sulphamoyl-1,3,4-thiadiazol-2-yl)-1H-pyrazole-3-carboxamide (9)], the negative logarithm of the Ki (pKi) on Carbonic anhydrase 1 [1] was 7.02; on Carbonic anhydrase 2 [2] it was 7.74. Also, the negative-log IC50 (pIC50) at Carbonic anhydrase 1 [3] was 6.70; on Carbonic anhydrase 2 [4], 6.10; at Carbonic anhydrase 1 [5], 6.64; against Carbonic anhydrase 2 [6], 7.52.

On to `NS(=O)(=O)c1nnc(NC(=O)c2nn(-c3ccc(I)cc3)c(-c3ccccc3)c2C(=O)c2ccccc2)s1` [4-Benzoyl-1-(4-iodophenyl)-5-phenyl-N-(5-sulphamoyl-1,3,4-thiadiazol-2-yl)-1H-pyrazole-3-carboxamide (10)], for which the pKi at Carbonic anhydrase 1 [1] was 6.44; on Carbonic anhydrase 2 [2], 7.25. Besides, the pIC50 at Carbonic anhydrase 1 [3] is 6.57; on Carbonic anhydrase 2 [4], 6.74; at Carbonic anhydrase 1 [5], 6.46; at Carbonic anhydrase 2 [6], 7.30.

In the case of `CCOC(=O)C(=NNc1ccc(-n2nc(C(=O)Nc3nnc(S(N)(=O)=O)s3)c(C(=O)c3ccccc3)c2-c2ccccc2)cc1)C(=O)OCC` [Diethyl 2-(2-(4-(4-benzoyl-5-phenyl-3-(5-sulphamoyl-1,3,4-thiadiazol-2-ylcarbamoyl)-1H-pyrazol-1-yl)phenyl)hydrazono)malonate (16)], the pKi on Carbonic anhydrase 1 [1] was 6.52; on Carbonic anhydrase 2 [2], 7.19. The pIC50 against Carbonic anhydrase 1 [3] is 6.07; at Carbonic anhydrase 2 [4] it was 6.00; against Carbonic anhydrase 1 [5] it was 6.42; at Carbonic anhydrase 2 [6], 7.15.

As to `CCOC(=O)/C(=N/Nc1ccc(-n2nc(C(=O)Nc3nnc(S(N)(=O)=O)s3)c(C(=O)c3ccccc3)c2-c2ccccc2)cc1)C(=O)c1ccccc1` [Ethyl 2-(2-(4-(4-benzoyl-5-phenyl-3-(5-sulphamoyl-1,3,4-thiadiazol-2-ylcarbamoyl)-1H-pyrazol-1-yl)phenyl)hydrazono)-3-oxo-3-phenylpropanoate (14)], the results for the negative-log Ki (pKi) at Carbonic anhydrase 1 [1] and at Carbonic anhydrase 2 [2] were 5.81 and 6.30, respectively. The pIC50 is 5.88 at Carbonic anhydrase 1 [3], 5.89 on Carbonic anhydrase 2 [4], 6.10 on Carbonic anhydrase 1 [5] and 6.07 on Carbonic anhydrase 2 [6].

For the compound `CCOC(=O)/C(=N/Nc1ccc(-n2nc(C(=O)Nc3nnc(S(N)(=O)=O)s3)c(C(=O)c3ccccc3)c2-c2ccccc2)cc1)C(C)=O` [Ethyl 2-(2-(4-(4-benzoyl-5-phenyl-3-(5-sulphamoyl-1,3,4-thiadiazol-2-ylcarbamoyl)-1H-pyrazol-1-yl)phenyl)hydrazono)-3-oxobutanoate (15)], the negative-log Ki (pKi) on Carbonic anhydrase 1 [1] is 5.92; on Carbonic anhydrase 2 [2] it was 6.90. Besides, the pIC50 against Carbonic anhydrase 1 [3] is 5.92; on Carbonic anhydrase 2 [4], 6.10; against Carbonic anhydrase 1 [5], 6.04; against Carbonic anhydrase 2 [6], 6.85.

Regarding `CC(=O)/C(=N\Nc1ccc(-n2nc(C(=O)Nc3nnc(S(N)(=O)=O)s3)c(C(=O)c3ccccc3)c2-c2ccccc2)cc1)C(=O)OC(C)(C)C` [tert-Butyl 2-(2-(4-(4-benzoyl-5-phenyl-3-(5-sulphamoyl-1,3,4-thiadiazol-2-ylcarbamoyl)-1H-pyrazol-1-yl)phenyl)hydrazono)-3-oxobutanoate (17)], the negative logarithm of the Ki (pKi) on Carbonic anhydrase 1 [1] was 6.51; at Carbonic anhydrase 2 [2], 6.97. The pIC50 was 6.11 against Carbonic anhydrase 1 [3], 6.70 on Carbonic anhydrase 2 [4], 6.48 at Carbonic anhydrase 1 [5] and 7.10 on Carbonic anhydrase 2 [6].
